According to patent US5879683A, “Antibacterial agent containing tea extract or active fraction thereof and β-lactam antibiotic” (priority 1994, dated 1999):
Values joined by “and” are separate entries in the source; they are usually repeats but may differ in a detail not shown here. Equal entries are not always repeated. “Also recorded” adds a separate entry of the source.

Legend:
Type in all cases: cell-based, Staphylococcus aureus
S. aureus USA#18 = assay: Activity II bioassay (anti-PBP2' action), agar well diffusion with methicillin 10 μg/ml; conditions: for activity II: pure compound at 1 mg/ml
Excerpt: (§1) Activities I (inhibitory/killing actions against bacteria), II (anti-PBP2' action) and III (action against β-lactamase) were quantitated by bioassay, using large plates (14 cm diameter circular, or 25×25 cm square) containing IsoSensitest agar (Unipath CM 471) to a depth of about 4 mm. surface-seeded with S. aureus. Assay strains and additions to agar varied according to the activity being assayed (Table 4).
(§2) 6 mm wells were cut into the agar and filled with appropriate dilutions (in duplicate) of solutions of the material to be assayed. Following overnight incubation, diameters of inhibition zones were measured, and plots made of (log concentration) vs zone diameter. MNIC was calculated by extrapolating the regression line to zone diameter=6 mm; it was expressed ether as a concentration (μg/ml) or an activity (reciprocal of concentration in mg/ml).

S. aureus Oxford = assay: Activity I bioassay (inhibitory/killing action), agar well diffusion; conditions: pure compound at 1 mg/ml
Excerpt: as §1, §2

MSSA = assay: MIC of benzylpenicillin in presence and absence of tea extract, MSSA (activity III)
Procedure: (§3) Strains were grown overnight at 37° C. in IsoSensitest™ broth (ISB, Unipath CM 473), and 1 μl amounts (c. 10^6 colony forming units (cfu) were inoculated on to six series of plates of IsoSensitest™ agar containing doubling dilutions of methicillin (1024- 1 μg/ml) alone and in the presence of tea extract in various sub-inhibitory concentrations, viz final dilutions of 1/40, 1/70, 1/100, 1/200 and 1/300.
(§4) Plates were incubated at 30° for 48 h. The minimum inhibitory concentration (MIC) of antibiotic was calculated for each sample, as a measure of activity II.
The 40 strains tested in Examples 1 and 2 above, together with 9 strains of methicillin-sensitive Staph. aureus (MSSA) were tested for their resistance to benzylpenicillin in the presence or absence of tea extract, with a view to measuring activity III. The procedures used were those described in Example 1, except that benzylpenicillin replaced methicillin. Both MSSA and MRSA have natural resistance to benzylpenicillin through the production of β-lactamase.

low level MRSA = assay: MIC of methicillin alone and in presence of tea extract, low level MRSA (activity II); conditions: strain no. is first number of line
Procedure: as §3, §4
A further 20 strains of low level MRSA were tested for activity II according to the procedures described in Example 1.

[1] = system: high level MRSA (20 strains of MRSA); assay: MIC of methicillin alone and in presence of tea extract, agar dilution, high level MRSA (activity II); conditions: strain no. is first number of line
Procedure: A 2% extract of crushed leaf Japanese "Sencha" tea was made in boiling water, and filtered through a Millipore filter. This extract contains about 14.7 mg/ml of tea.
Sodium methicillin (SmithKline Beecham) and vancomycin hydrochloride (Lilly Industries) were Laboratory Reference preparation.
IsoSensitest agar (Unipath CM 471) was supplemented with 20 g NaCl/L.
as §3, §4

MRSA = assay: Methicillin MIC in presence of sub-inhibitory vancomycin (control); conditions: sub-inhibitory vancomycin in place of tea
Procedure: A similar experiment was done using methicillin diluted in a series of sub-inhibitory concentrations of vancomycin, namely 0.5, 0.28, 0.2, 0.1 and 0.07 μg/l.
as §4

Row | Compound | activity II, pure compounds (S. aureus USA#18) | activity II (S. aureus USA#18) | activity I (S. aureus Oxford) | also measured
1 | Oc1cc(O)c2c(c1)O[C@H](c1cc(O)c(O)c(O)c1)[C@H](O)C2 [EGC, Epigallocatechin] | no activity II |  |  | 
2 | O=C(O[C@@H]1Cc2c(O)cc(O)cc2O[C@@H]1c1cc(O)c(O)c(O)c1)c1cc(O)c(O)c(O)c1 [EGCG, epigallocatechin gallate] | no activity II |  |  | 
3 | Oc1cc(O)c2c(c1)O[C@H](c1ccc(O)c(O)c1)[C@H](O)C2 [Epicatechin, epicatechin] |  | no evidence of activity I or II | no evidence of activity I or II | 
4 | O=c1c(O)c(-c2ccc(O)c(O)c2)oc2cc(O)cc(O)c12 [Quercitin, quercitin] | no activity II |  |  | 
5 | CC1(C)S[C@@H]2[C@H](NC(=O)Cc3ccccc3)C(=O)N2[C@H]1C(=O)O [benzylpenicillin] |  |  |  | MIC (MSSA; Staphylococcus aureus, 48 h, read-out: MIC of benzylpenicillin, alone, MSSA, strain no. is first number of line): > 512 µg/mL; MIC of benzylpenicillin, alone (MSSA; strain no. is first number of line): 512 µg/mL and 256 µg/mL
6 | O=C(/C=C/c1ccc(O)c(O)c1)O[C@@H]1C[C@](O)(C(=O)O)C[C@@H](O)[C@H]1O [chlorogenic acid] |  | no evidence of activity I or II | no evidence of activity I or II | 
7 | O=C(O)c1cc(O)c(O)c(O)c1 [gallic acid] |  | no evidence of activity I or II | no evidence of activity I or II | 
8 | O=c1c(O)c(-c2ccc(O)cc2)oc2cc(O)cc(O)c12 [kaempferol] | no activity II |  |  | 
9 | COc1cccc(OC)c1C(=O)N[C@@H]1C(=O)N2[C@@H]1SC(C)(C)[C@@H]2C(=O)O [methicillin] |  |  |  | MIC of methicillin, alone (low level MRSA): 32 µg/mL and 64 µg/mL; MIC of methicillin, alone ([1]; no tea): 512 µg/mL; MIC of methicillin, +T/300 ([1]; tea extract 1/300): 512 µg/mL
10 | Cn1cnc2c1c(=O)[nH]c(=O)n2C [theobromine] |  | no evidence of activity I or II | no evidence of activity I or II | 
11 | Cn1c(=O)c2[nH]cnc2n(C)c1=O [theophylline] |  | no evidence of activity I or II | no evidence of activity I or II | 
12 | CN[C@H](CC(C)C)C(=O)N[C@H]1C(=O)N[C@@H](CC(N)=O)C(=O)N[C@H]2C(=O)N[C@H]3C(=O)N[C@H](C(=O)N[C@H](C(=O)O)c4cc(O)cc(O)c4-c4cc3ccc4O)[C@H](O)c3ccc(c(Cl)c3)Oc3cc2cc(c3O[C@@H]2O[C@H](CO)[C@@H](O)[C@H](O)[C@H]2O[C@H]2C[C@](C)(N)[C@H](O)[C@H](C)O2)Oc2ccc(cc2Cl)[C@H]1O [vancomycin] |  |  |  | effect of vancomycin on methicillin MIC / synergy (MRSA): no synergistic effect whatever; also recorded: no reduction in methicillin MIC
